Source: patent publication US7037647B1, “Prostate-specific membrane antigen and uses thereof” (Sloan-Kettering Institute for Cancer Research, priority 1995, dated 2006)
Like-named read-outs stand apart in the source and are kept apart here.

Tests used:
[1] = target: T1, PSM enzyme (folate hydrolase) (Homo sapiens, UniProt Q04609); assay type: biochemical; details: for hydrolysis as substrate by the PSM enzyme (in words): LNCaP membrane preparations
T1 construct: membrane preparations from androgen-sensitive human prostatic carcinoma cells (LNCaP); endogenous in cells; host or cells: LNCaP cell membranes
Excerpt: Using capillary electrophoresisis pteroyl poly-gamma-glutamate carboxypeptidase (hydrolase) activity was investigated in membrane preparations from androgen-sensitive human prostatic carcinoma cells (LNCaP).

[2] = target: T2, Prostate specific membrane antigen (Homo sapiens, UniProt Q04609); experiment: Inhibition of neuropeptidase activity (NAAG as substrate) of immunoprecipitated PSM; assay type: biochemical
T2 construct: Prostate specific membrane antigen was immuno precipitated from the prostate cancer cell line LNCaP; endogenous in cells; host or cells: LNCaP (immunoprecipitate)
Excerpt: PSM may have activities both as a folate hydrolase and a carboxyneuropeptidase. For the cytotoxic drug methotrexate to be a tumor toxin it has to get into the cell and be polygammaglutamated which to be active, because polyglutamated forms serve as the enzyme substrates and because polyglutamated forms or toxins are also retained by the cell. Folate hydrolase is a competing reaction and deglutamates methotrexate which then can diffuse back out of the cell. Cells that overexpose folate hydrolase activity are resistant to methotrexate. Prostate cancer has always been absolutely refractory to methotrexate therapy and this may explain why, since the prostate and prostate cancer has a lot of folate hydolase activity. However, based on this activity, prodrugs may be generated which would be activate at the site of the tumor such as N-phosphonoacetyl-1-aspartate-glutamate.
Folate is necessary for the support of cell function and growth and thus this enzyme may serve to modulate folate access to the prostate and prostate tumor. The other area where PSM is expressed is in the small intestine. It turns out that a key enzyme of the small intestine that is involved in folate uptake acts as a gamma-carboxypeptidase in sequentially proteolytically removing the terminal gammaglutaminyl group from folate. […]

[3] = system: PSM mRNA expression in LNCaP cells; experiment: Steroid modulation of PSM mRNA expression, ribonuclease protection assay; assay type: cell-based, human; details: 24 hours; for effect on PSM mRNA expression (in words): physiologic doses of steroids; for downregulation of PSM mRNA expression: charcoal-extracted serum media, steroid 2 nM
Excerpt: A portion of the PSM cDNA was subcloned into the plasmid vector pSPORT 1 (Gibco-BRL) and the orientation of the cDNA insert relative to the flanking T7 and SP6 RNA polymerase promoters was verified by restriction analysis. Linearization of this plasmid upstream of the PSM insert followed by transcription with SP6 RNA polymerase yields a 400 nucleotide antisense RNA probe, of which 350 nucleotides should be protected from RNase digestion by PSM RNA. This probe was used in FIG. 20. Plasmid IN-20, containing a 1 kb partial PSM cDNA in the plasmid pCR II (Invitrogen) was also used for riboprobe synthesis. IN-20 linearized with Xmn I (Gibco-BRL) yields a 298 nucleotide anti-sense RNA probe when transcribed using SP6 RNA polymerase, of which 260 nucleotides should be protected from RNase digestion by PSM mRNA. This probe was used in FIGS. 21 and 22. Probes were synthesized using SP6 RNA polymerase (Gibco-BRL), rNTPs (Gibco-BRL), RNAsin (Promega), and ^32P-rCTP (NEN, Wilmington, Del.) according to published protocols (13). Probes were purified over NENSORB 20 purification columns (NEN) and approximately 1 million cpm of purified, radiolabeled PSM probe was mixed with 10μ of each RNA and hybridized overnight at 45 C using buffers and reagents from the RPA II kit (Ambion, Austin, Tex.). Samples were processed as per manufacturer's instructions and analyzed on 5% polyacrilamide/7M urea denaturing gels using Seq ACRYL reagents (ISS, Natick, Mass.). Gels were pre-heated to 55 C and run for approximately 1-2 hours at 25 watts. Gels were then fixed for 30 minutes in 10% methanol/10% acetic acid, dried onto Whatman 3MM paper at 80 C in a BioRad vacuum dryer and autoradiographed overnight with Hyperfilm MP (Amersham). Quantitation of PSM expression was determined by using a scanning laser densitometer (LKB, Piscataway, N.J.).
LNCaP cells (2 million) were plated onto T-75 flasks in RPMI 1640 media supplemented with 5% fetal calf serum and grown 24 hours until approximately 30-40% confluent. Flasks were then washed several times with phophate-buffered saline and RPMI medium supplemented with 5% charcoal-extracted serum was added. Cells were then grown for another 24 hours, at which time dihydrotesterone, testosterone, estradiol, progesterone, and dexamethasone (Steraloids Inc., Wilton, N.H.) were added at a final concentration of 2 nM. Cells were grown for another 24 hours and RNA was then harvested as previously described and PSM expression analyzed by ribonuclease protection analysis.

[4] = system: PSM mRNA expression in LNCaP cells; experiment: Modulation of PSM mRNA expression by cytokines and growth factors, Northern blot and laser densitometry; assay type: cell-based, human; details: 24 to 72 hours, 0.1 ng/ml to 100 ng/ml; for upregulation of PSM expression compared to untreated LNCaP: androgen-depleted media; for downregulation of PSM expression: androgen depleted LNCaP cells
Excerpt: Total RNA was extracted from the cells and PSM mRNA expression was quantitated by Northern blot analysis and laser densitometry.

LNCaP cells = experiment: Mitogenic response to transferrin, cell count; assay type: cell-based, human
PC-3 cells = experiment: Mitogenic response to transferrin, cell count; assay type: cell-based, human; details: 1 μg per ml holotransferrin, counted at 5 days
Method: 2×10^4 PC-3 or PSM-transfected PC-3 cells per well ere plated in RPMI medium supplemented with 10% fetal bovine serum and at 24 hrs. added 1 μg per ml. of holotransferrin to the cells. […] Cells were counted at 1 day to determine plating efficiency and at 5 days to determine the effect of the transferrin. Experiments were repeated to verify the results.

[5] = 0.05-0.5 mM, semi-purified membrane-bound enzyme

T1 sequence (Q04609 whole entry): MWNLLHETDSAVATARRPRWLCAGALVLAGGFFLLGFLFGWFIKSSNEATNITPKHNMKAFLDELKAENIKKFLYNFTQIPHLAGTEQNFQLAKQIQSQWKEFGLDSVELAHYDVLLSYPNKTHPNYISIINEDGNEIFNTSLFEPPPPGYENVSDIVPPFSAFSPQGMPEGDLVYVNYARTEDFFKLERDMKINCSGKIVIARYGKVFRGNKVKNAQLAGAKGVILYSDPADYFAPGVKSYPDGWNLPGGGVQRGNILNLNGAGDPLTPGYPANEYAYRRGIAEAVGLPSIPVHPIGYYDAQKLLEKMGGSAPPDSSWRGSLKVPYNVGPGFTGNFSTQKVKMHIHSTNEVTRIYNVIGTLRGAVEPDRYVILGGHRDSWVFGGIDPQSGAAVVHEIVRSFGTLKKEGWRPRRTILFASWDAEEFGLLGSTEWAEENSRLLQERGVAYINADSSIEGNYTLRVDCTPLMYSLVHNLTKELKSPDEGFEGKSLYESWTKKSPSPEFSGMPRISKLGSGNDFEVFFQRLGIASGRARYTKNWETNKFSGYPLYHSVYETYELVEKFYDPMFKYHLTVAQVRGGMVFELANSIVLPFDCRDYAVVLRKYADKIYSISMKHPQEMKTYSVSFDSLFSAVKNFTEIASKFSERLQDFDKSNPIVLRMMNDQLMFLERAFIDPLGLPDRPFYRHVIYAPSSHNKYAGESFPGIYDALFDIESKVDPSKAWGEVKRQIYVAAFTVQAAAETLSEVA
T2 sequence (Q04609 whole entry): as above

N[C@@H](CCC(=O)N[C@@H](CS)C(=O)NCC(=O)O)C(=O)O [reduced glutathione]
inhibition of enzymatic activity (in words) [1]: not

O=C(O)CC[C@H](NC(=O)[C@H](CC(=O)O)NC(=O)CP(=O)(O)O)C(=O)O [PALglu, N-phosphonoacetyl-1-aspartate-glutamate]
inhibition of neuropeptidase activity (in words) ([2]; NAAG as a substrate): is an inhibitor of the enzyme activity

CN(Cc1cnc2nc(N)nc(N)c2n1)c1ccc(C(=O)N[C@@H](CCC(=O)N[C@@H](CCC(=O)N[C@@H](CCC(=O)O)C(=O)O)C(=O)O)C(=O)O)cc1 [MTXGlu3, methotrexate triuglutamate]
hydrolysis as substrate by the PSM enzyme (in words) [1]: liberates progressively glutamates

CC(=O)[C@H]1CC[C@H]2[C@@H]3CCC4=CC(=O)CC[C@]4(C)[C@H]3CC[C@]12C [progesterone]
effect on PSM mRNA expression (in words) [3]: downregulated PSM expression | effect on PSM mRNA expression (in words) ([3]; listed as Progesterone): significantly diminished PSM expression

C[C@]12CCC(=O)C[C@@H]1CC[C@@H]1[C@@H]2CC[C@]2(C)[C@@H](O)CC[C@@H]12 [DHT, dihydrotesterone]
doses at which maximal downregulation of PSM mRNA was seen [3]: 2 to 20 nM | downregulation of PSM mRNA expression [3]: 8-10 fold | effect on PSM mRNA expression (in words) [3]: significantly diminished PSM expression

b-FGF: growth factor
upregulation of PSM expression compared to untreated LNCaP [4]: 10 fold

N[C@@H](CCS)C(=O)O [homocysteine]
inhibition of enzymatic activity (in words) [1, 5]: not

TNFα
downregulation of PSM expression [4]: 8 fold

TGFα: growth factor, mitogenic for aggressive prostate cancer cells
upregulation of PSM expression compared to untreated LNCaP [4]: 10 fold

transferrin: holotransferrin added at 1 μg per ml to the cells
stimulation of cell growth (LNCaP cells): 43% | average increase in cell growth over controls (PC-3 cells): 275%

O=C(O)c1cc[c]([Hg+])cc1.[OH-] [p-hydroxymercuribenzoate]
inhibition of enzymatic activity (in words) [1, 5]: not

Penta-gammaglutamyl-folate
Ki ([2]; read-out: Ki, inhibition of the activity of the enzyme): 500 nM | hydrolysis as substrate by the PSM enzyme (in words) [1]: liberates progressively glutamates

O[C@@H](CS)[C@@H](O)CS [dithfothreitol]
inhibition of enzymatic activity (in words) ([1]; ≧0.2 mM, semi-purified membrane-bound enzyme): weakly inhibited

C[C@]12CC[C@H]3[C@@H](CCC4=CC(=O)CC[C@@]43C)[C@@H]1CC[C@@H]2O [testosterone]
downregulation of PSM mRNA expression [3]: 3-4 fold | effect on PSM mRNA expression (in words) [3]: significantly diminished PSM expression

B1: TNFβ: cytokine (protein, UniProt P01374 35-205, looked up)
Lymphotoxin-alpha: LPGVGLTPSAAQTARQHPKMHLAHSTLKPAAHLIGDPSKQNSLLWRANTDRAFLQDGFSLSNNSLLVPTSGIYFVYSQVVFSGKAYSPKATSSPLYLAHEVQLFSSQYPFHVPLLSSQKMVYPGLQEPWLHSMYHGAAFQLTQGDQLSTHTDGIPHLVLSPSTVFFGAFAL
downregulation of PSM expression [4]: 8 fold
